The values below come from US20250207175A1, “METHOD FOR DETECTING CONTAMINATING CARBOXYLESTERASE ACTIVITY” (Boehringer Ingelheim International GmbH, priority 2022, published 2025).

Broadly, the solubility is the concentration that dissolves in the medium under given conditions.

Data set [1] can be described thus: Solubility of OPTS in H2O (stock solutions, verified by light scattering). The format is physicochemical. Conditions: water, aqueous stock solution. The protocol: Stock solutions of the fluorogenic substrate in water were prepared. Aqueous solutions with an OPTS concentration ≥2.0 mM could be prepared. The solubility could be verified by light scattering experiments.

Data set [2] is classed as physicochemical. From the text:
In order to be able to determine the enzymatic activity, a substrate, 1-octanoyloxy-pyrene-3,6,8-trisulfonic acid trisodium salt (OPTS), was chosen. Its hydrolytic product, 1-hydroxypyrene-3,6,8-trisulfonic acid trisodium salt (HPTS), can be detected by fluorescence spectroscopy. The change in the fluorescence signal over time is directly related to the change in the concentration of free fluorophore. The conversion was made possible by setting up a calibration curve with a subsequent linear fit (R^2≥0.99). The experiments of the kinetics measurements with the OPTS/4-MUD substrates assay were performed in duplicates. The reaction mixture without the protein of interest, which served as the respective control, was subtracted from the protein-containing batch. The buffer used for OPTS measurements (hydrophilic substrate) contained 0.3 M HOAc, 0.3 M MES, 0.6 M TRIS and 0.6 M NaCl (4×AMT buffer; acetate, MES, TRIS). For 4-MUD substrate measurements (lipophilic substrate) 0.04 M CHAPS was added in addition. The buffer (AMT) was prepared in four-fold concentration (4×AMT) and was added at 25% (v/v) to the reaction mix. All measurements were carried out in multiwell plates with a preparation volume of 300 μL (75 μL 4×AMT buffer, 30 μL substrate, 75 μL enzyme-containing solution, x μL additive, 300 μL ad. H2O) Unless otherwise stated, all fluorescence spectroscopic measurements were performed using 96-well, clear-bottom, non-binding plates (Greiner, Austria) on a SpectraMax M3 PlateReader (Molecular Device, USA) and recorded using SoftMax Pro 7.0.3 software (Molecular Device, USA). The OPTS assay measurements were typically taken at 25° C., λex=403 nm and λem=512 nm and the 4-MUD assay measurements were taken at 25° C., λex=330 nm and λem=450 nm. For evaluation, the detected fluorescence signal for a reaction mix without protein of interest (control) was subtracted from the reaction mix with protein of interest (e.g. DS). Hydrolysis of the substrate has been measured by detecting the fluorescence intensity of the released chromophore (4-MU or HPTS) immediately following mixing in real-time for a few minutes up to 5 hours depending on fluorescence intensity. The changes in the fluorescence signal over time were subsequently converted to hydrolytic activity using previously established calibration curves with a linear fit (R^2≥0.99).
The fluorophore HPTS can be released from the substrate (here esterified caprylic acid) by enzymatic or chemical hydrolysis (acidic and alkaline hydrolysis). In order to assess the influence of pH on aqueous solutions of the substrate, 225 μL of a 33.3 μM OPTS solution was added to 75 μL each of AMT buffer (with pH=5.5 and pH=8) and the kinetics of fluorophore release were recorded for two hours.
There is a clear difference in the slope of the fluorescence signals for the different pH values. Based on the recorded calibration curves the autohydrolysis rate at pH 5.5 was calculated as 1.58*10^−7 units (μmol*min-1) and the autohydrolysis rate at pH 8.0 was calculated as 3.48*10^−6 units. Thus, the hydrolysis rate at pH 8 is about 22-times higher compared to pH 5.5, showing that hydrolysis of the fluorogenic substrate can be observed over time, at basic pH, but only at a very low level at pH 5.5. […]

The nature of data set [3]: OPTS assay of histidine-containing buffer controls. Conditions: histidine concentrations of less than 200 μM; data not shown. The procedure:
9 different antibody (Ab1-Ab9) samples were tested using the OPTS assay. As a control, measurements were performed with the respective same buffer solution as used in the antibody sample.
Since histidine has been reported previously to mediate hydrolytic activities in aqueous solutions similar to esterases (Delort, Nguyen-Trung et al. 2006, Mason, McCracken et al. 2010, Amano, Kobayashi et al. 2014, Xu, Chen et al. 2017), samples were dialysed against 0.002% NaCl using a two-step dialysis with a molecular weight cut-off (MWCO) of 20K. For preparative dialysis, the pre-wettened dialysis cassette was filled with 2 ml antibody solution and placed in a beaker filled with 1 L NaCl (0.002% w/v) solution with gentle stirring. After one hour the 1 L NaCl solution was replaced with fresh NaCl (0.002% w/v) solution and dialysed for another two hours with gentle stirring. […] In the following the assay was performed using dialysed drug substance samples. The same solution (final solution outside the dialysis cassette) was used as control sample to be subtracted from the test sample.

The next data set deals with lipase activity. Conditions: FIG. 10 of WO 2022 049294 A1; cited from earlier work.

The compound `CCCCCCCC(=O)Oc1cc(S(=O)(=O)[O-])c2ccc3c(S(=O)(=O)[O-])cc(S(=O)(=O)[O-])c4ccc1c2c43.[Na+].[Na+].[Na+]` [OPTS, 1-octanoyloxy-pyrene-3,6,8-trisulfonic acid trisodium salt] yielded a solubility in data set [1] of at least 2000 µM. Further, the “stability of OPTS in solvent (autohydrolysis)” value in data set [2] is “more stable in DMSO compared to H2O”. Also, the “autohydrolysis rate at pH 5.5” value in data set [2] (25 μM OPTS, AMT buffer pH 5.5, two hours) was 1.58*10^−7 units (μmol*min-1). Moreover, the “autohydrolysis rate at pH 8.0” value in data set [2] (25 μM OPTS, AMT buffer pH 8.0, two hours) is recorded as 3.48*10^−6 units. Besides, the “hydrolysis rate at pH 8 compared to pH 5.5” value in data set [2] (autohydrolysis of OPTS) is listed as “about 22 times”. Further, the “autohydrolysis of OPTS compared to 4-MUD” value in data set [2] (particularly at pH 8.0) is given as “more critical”.

With `N[C@@H](Cc1c[nH]cn1)C(=O)O` [histidine], the “activity of histidine buffer component in the OPTS assay” value in data set [3] is on record as “low 10^−7”.

Consider “polyethylene glycol tert-octylphenyl ether [Triton X-100]”, for which the “effect of detergent on the 4-MUD assay” value in the data set with lipase activity is “inhibited”.
